Measured values from patent US5762956A, “Transdermal contraceptive delivery system and process” (priority 1996, dated 1998).

How the values were obtained:
Rabbit Skin = assay: Residual drug assay of patches from dermal toxicity test (daily delivery rate into rabbit); conditions: for in vivo delivery rate compared with in vitro rate: rabbit vs in vitro; for Daily Delivery Rate: rabbit, N = 6, ± S.D.
Procedure: The test consists of an one-week primary skin irritation study on six rabbits followed by histopathological examination on each patch application. Both medicated and placebo patches of this TCDS formulation were tested on either intact or abraded skin. Based on the Draize Scale Scoring Method, the primary dermal irritation index (PDII) was given to each patch application site at 24 and 72 hours following the 7 days application period. The patches used in the primary skin irritation test were retrieved for residual drug assay to determine the amount of drugs delivered into the test animal.

[1] = Phase I residual drug assay of used patches (daily delivery rate); conditions: for relationship between daily delivery rate and dosage: 1, 2 or 3 × 10 cm^2 TCDS patches; for Daily Delivery Rate: ± S.D.
Description: In this study, healthy female subjects of child-bearing age were randomly divided into 4 groups in a 4-way parallel study design (See Table 5). The study consists of three menstrual cycles which are sequentially arranged as pre-treatment, treatment and post-treatment cycles. During the pre-treatment cycle, the 48 recruited subjects were given placebo TCDS patches to study the wearability (including skin irritation and adhesion tests) while they were being screened against the inclusion/exclusion criteria specified in the clinical protocol. During the treatment cycle, each of the […] in Group A, B and C received weekly application of 1, 2 or 3 pieces of 10 cm^2 TCDS patches, respectively, while each subject in Group D received one oral contraceptive pill (each pill contains 150 μg of levonorgestrel and 35 μg of ethynyl estradiol) per day as reference.

[2] = Phase I serum levonorgestrel by radioimmunoassay; format: in vivo, human (fertile Chinese women); conditions: Groups B and C, three weeks of patch application
Procedure: Blood samples obtained from these three cycles of studies were assayed by radioimmunoassay (RIA) methods for their serum concentration of levonorgestrel, estradiol, progesterone, luteinizing hormone (LH) and follicle stimulating hormone (FSH). Ultrasonic measurement of follicle size and endometrium thickness measurement were also performed during the mid-treatment cycle. Bioavailability of levonorgestrel was assessed by the serum levonorgestrel profile of each subject group. Suppression of post-ovulatory progesterone peak and mid-cycle surges of LH and FSH provided hormonal indications of ovulation inhibition.

[3] = In-vitro drug permeation study, human cadaver skin, Valia-Chien cell, HPLC; format: in vitro ADME; conditions: from 10 cm^2 TCDS patch of Example 1, steady state
Procedure: The samples taken from the receptor compartment of the diffusion cell were analyzed by high performance liquid chromatography.
The skin permeation flux of each drug was subsequently calculated from the steady state of the permeation profile.

| SMILES | in vivo delivery rate compared with in vitro rate (Rabbit Skin) | relationship between daily delivery rate and dosage [1] | serum concentration of levonorgestrel versus target concentration [2] | skin permeation flux / amount delivered [3] | Daily Delivery Rate (Rabbit Skin; abraded skin) | Daily Delivery Rate (Rabbit Skin; intact skin) | Daily Delivery Rate ([1]; Group A: 1 × 10 cm^2 patch/week) | Daily Delivery Rate ([1]; Group B: 2 × 10 cm^2 patch/week) | Daily Delivery Rate ([1]; Group C: 3 × 10 cm^2 patch/week) |
| --- | --- | --- | --- | --- | --- | --- | --- | --- | --- |
| C#C[C@]1(O)CC[C@H]2[C@@H]3CCC4=CC(=O)CC[C@@H]4[C@H]3CC[C@@]21CC [Levonorgestrel, levonorgestrel] | seems to correlate very well with the in vitro delivery rate | linearly proportional to the increase in dosage of TCDS patches | above the target concentration throughout the three weeks of patch application | about 60.0±9.42 μg/day |  |  |  |  |  |
| C[C@]12CC[C@@H]3c4ccc(O)cc4CC[C@H]3[C@@H]1CC[C@@H]2O [17-beta-estradiol] | higher than skin permeation rate obtained in the in vitro study | established only for the dosages of the first and second pieces of 10 cm^2 TCDS patches |  | ~28.8 µg/day | 35.1 ± 26.70 µg/day | 37.0 ± 19.77 µg/day | 42.1 ± 16.32 µg/day | 89.7 ± 28.4 µg/day | 110.4 ± 28.61 µg/day |
